pIC50: −log10 of the molar value.
How the values were obtained:
[1] = target: T1, Gonadotropin-releasing hormone receptor (Homo sapiens, UniProt P30968); test: Antagonist activity against human GnRH receptor expressed in HEK293 cells co-transfected with pGL4-NFAT promoter AP1-luc assessed as inhibition of 20 nM GnRH-induced NFAT activation pre-incubated for 1 hr before GnRH stimulation and measured after 6 hrs by luciferase reporter gene assay; type: cell-based
T1 sequence (P30968 whole entry): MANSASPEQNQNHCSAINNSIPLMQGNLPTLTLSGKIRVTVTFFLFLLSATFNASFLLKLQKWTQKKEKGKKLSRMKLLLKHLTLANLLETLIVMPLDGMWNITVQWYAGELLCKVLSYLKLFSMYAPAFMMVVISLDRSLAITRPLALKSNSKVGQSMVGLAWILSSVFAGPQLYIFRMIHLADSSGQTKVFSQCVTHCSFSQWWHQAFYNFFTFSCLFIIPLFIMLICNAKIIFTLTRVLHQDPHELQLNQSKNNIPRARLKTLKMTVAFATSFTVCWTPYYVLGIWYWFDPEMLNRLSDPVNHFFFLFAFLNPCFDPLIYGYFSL

[2] = target: T1, Gonadotropin-releasing hormone receptor; test: Displacement of [125I]D-Trp6-LHRH from human GnRH receptor expressed in CHO-K1 cell membranes incubated for 1 hr by competitive binding assay

| Compound | pIC50 [1] | pIC50 [2] |
| --- | --- | --- |
| Cc1c(N2CCN(Cc3ccnc(C(F)(F)F)c3)CC2)c(=O)n(C[C@H](N)c2ccccc2)c(=O)n1Cc1c(F)cccc1C(F)(F)F | 6.65 | – |
| Cc1c(N2CCN(Cc3ccc(C#N)cc3)CC2)c(=O)n(C[C@H](N)c2ccccc2)c(=O)n1Cc1c(F)cccc1C(F)(F)F | 6.49 | 8.94 |
| Cc1c(N2CCN(Cc3cccc(F)c3C#N)CC2)c(=O)n(C[C@H](N)c2ccccc2)c(=O)n1Cc1c(F)cccc1C(F)(F)F | 6.97 | – |
| Cc1c(N2CCN(Cc3cccc4cnoc34)CC2)c(=O)n(C[C@H](N)c2ccccc2)c(=O)n1Cc1c(F)cccc1C(F)(F)F | < 6.52 | – |
| Cc1c(N2CCN(Cc3cccc(C#N)c3F)CC2)c(=O)n(C[C@H](N)c2ccccc2)c(=O)n1Cc1c(F)cccc1C(F)(F)F | 7.21 | – |
| Cc1c(N2CCN(Cc3cc(C(F)(F)F)co3)CC2)c(=O)n(C[C@H](N)c2ccccc2)c(=O)n1Cc1c(F)cccc1C(F)(F)F | < 6.52 | – |
| Cc1c(N2CCN(Cc3cccnc3C(F)(F)F)CC2)c(=O)n(C[C@H](N)c2ccccc2)c(=O)n1Cc1c(F)cccc1C(F)(F)F | < 6.52 | – |
| Cc1c(N2CCN(Cc3cccc(S(C)(=O)=O)c3)CC2)c(=O)n(C[C@H](N)c2ccccc2)c(=O)n1Cc1c(F)cccc1C(F)(F)F | 6.67 | 9.42 |
| Cc1c(N2CCN(Cc3cccc4nonc34)CC2)c(=O)n(C[C@H](N)c2ccccc2)c(=O)n1Cc1c(F)cccc1C(F)(F)F | 6.05 | 9.22 |
| Cc1c(N2CCN(Cc3cccc4occc34)CC2)c(=O)n(C[C@H](N)c2ccccc2)c(=O)n1Cc1c(F)cccc1C(F)(F)F | < 6.52 | – |
| Cc1cncc(CN2CCN(c3c(C)n(Cc4c(F)cccc4C(F)(F)F)c(=O)n(C[C@H](N)c4ccccc4)c3=O)CC2)c1 | 5.93 | 8.14 |
| Cc1c(N2CCN(Cc3ccccc3F)CC2)c(=O)n(C[C@H](N)c2ccccc2)c(=O)n1Cc1c(F)cccc1C(F)(F)F | 6.47 | 9.00 |
| COC(=O)c1ccccc1CN1CCN(c2c(C)n(Cc3c(F)cccc3C(F)(F)F)c(=O)n(C[C@H](N)c3ccccc3)c2=O)CC1 | < 5.00 | 7.61 |
| Cc1c(N2CCN(Cc3cscn3)CC2)c(=O)n(C[C@H](N)c2ccccc2)c(=O)n1Cc1c(F)cccc1C(F)(F)F | 5.67 | 7.45 |
| CCNC(=O)c1cccc(CN2CCN(c3c(C)n(Cc4c(F)cccc4C(F)(F)F)c(=O)n(C[C@H](N)c4ccccc4)c3=O)CC2)c1 | < 6.52 | – |
| Cc1c(N2CCN(Cc3nnc(C(F)(F)F)o3)CC2)c(=O)n(C[C@H](N)c2ccccc2)c(=O)n1Cc1c(F)cccc1C(F)(F)F | < 6.52 | – |
| Cc1c(N2CCN(Cc3cccc([S+](C)[O-])c3)CC2)c(=O)n(C[C@H](N)c2ccccc2)c(=O)n1Cc1c(F)cccc1C(F)(F)F (stereo partly drawn) | 7.29 | – |
| Cc1c(N2CCN(Cc3ccc(C(F)(F)F)nc3)CC2)c(=O)n(C[C@H](N)c2ccccc2)c(=O)n1Cc1c(F)cccc1C(F)(F)F | < 6.52 | – |
| Cc1c(N2CCN(Cc3ccc(C#N)o3)CC2)c(=O)n(C[C@H](N)c2ccccc2)c(=O)n1Cc1c(F)cccc1C(F)(F)F | 6.99 | 9.77 |
| Cc1c(N2CCN(Cc3ccc(=O)[nH]c3)CC2)c(=O)n(C[C@H](N)c2ccccc2)c(=O)n1Cc1c(F)cccc1C(F)(F)F | 5.96 | 7.55 |
| Cc1c(N2CCN(Cc3cccc(F)c3F)CC2)c(=O)n(C[C@H](N)c2ccccc2)c(=O)n1Cc1c(F)cccc1C(F)(F)F | 6.58 | 9.41 |
| CNC(=O)c1cccc(CN2CCN(c3c(C)n(Cc4c(F)cccc4C(F)(F)F)c(=O)n(C[C@H](N)c4ccccc4)c3=O)CC2)c1 | 6.77 | – |
| Cc1c(N2CCN(Cc3ccc(Cl)nc3)CC2)c(=O)n(C[C@H](N)c2ccccc2)c(=O)n1Cc1c(F)cccc1C(F)(F)F | 6.26 | 8.42 |

| Compound | pIC50 [1] | pIC50 [2] |
| --- | --- | --- |
| COC(=O)c1cccc(CN2CCN(c3c(C)n(Cc4c(F)cccc4C(F)(F)F)c(=O)n(C[C@H](N)c4ccccc4)c3=O)CC2)c1 | 7.63 | 9.41 |
| Cc1c(N2CCN(Cc3ccc(C(F)(F)F)s3)CC2)c(=O)n(C[C@H](N)c2ccccc2)c(=O)n1Cc1c(F)cccc1C(F)(F)F | 7.21 | – |
| Cc1c(N2CCN(Cc3ccoc3)CC2)c(=O)n(C[C@H](N)c2ccccc2)c(=O)n1Cc1c(F)cccc1C(F)(F)F | < 6.00 | 8.18 |
| Cc1c(N2CCN(Cc3cccc(C(N)=O)c3F)CC2)c(=O)n(C[C@H](N)c2ccccc2)c(=O)n1Cc1c(F)cccc1C(F)(F)F | 7.38 | – |
| Cc1c(N2CCN(Cc3cccc([N+](=O)[O-])c3F)CC2)c(=O)n(C[C@H](N)c2ccccc2)c(=O)n1Cc1c(F)cccc1C(F)(F)F | 6.94 | – |
| Cc1c(N2CCN(Cc3cccc(F)c3)CC2)c(=O)n(C[C@H](N)c2ccccc2)c(=O)n1Cc1c(F)cccc1C(F)(F)F | 6.49 | 8.77 |
| Cc1c(N2CCN(Cc3cccc(C(F)(F)F)n3)CC2)c(=O)n(C[C@H](N)c2ccccc2)c(=O)n1Cc1c(F)cccc1C(F)(F)F | 6.66 | – |
| Cc1c(N2CCN(Cc3nc4ccccc4s3)CC2)c(=O)n(C[C@H](N)c2ccccc2)c(=O)n1Cc1c(F)cccc1C(F)(F)F | 5.31 | 7.32 |
| Cc1c(N2CCN(Cc3cccc4ccsc34)CC2)c(=O)n(C[C@H](N)c2ccccc2)c(=O)n1Cc1c(F)cccc1C(F)(F)F | 4.99 | 7.74 |
| Cc1c(N2CCN(Cc3cncc(F)c3)CC2)c(=O)n(C[C@H](N)c2ccccc2)c(=O)n1Cc1c(F)cccc1C(F)(F)F | 5.82 | 8.70 |
| Cc1c(N2CCN(Cc3cnccn3)CC2)c(=O)n(C[C@H](N)c2ccccc2)c(=O)n1Cc1c(F)cccc1C(F)(F)F | 5.69 | 7.70 |
| Cc1c(N2CCN(Cc3cccc([N+](=O)[O-])c3)CC2)c(=O)n(C[C@H](N)c2ccccc2)c(=O)n1Cc1c(F)cccc1F | 6.40 | 8.54 |
| Cc1c(N2CCN(Cc3cccnc3F)CC2)c(=O)n(C[C@H](N)c2ccccc2)c(=O)n1Cc1c(F)cccc1C(F)(F)F | 6.71 | 8.97 |
| Cc1c(N2CCN(Cc3ccco3)CC2)c(=O)n(C[C@H](N)c2ccccc2)c(=O)n1Cc1c(F)cccc1C(F)(F)F | < 6.00 | 8.56 |
| Cc1ccc(CN2CCN(c3c(C)n(Cc4c(F)cccc4C(F)(F)F)c(=O)n(C[C@H](N)c4ccccc4)c3=O)CC2)o1 | < 6.52 | – |
| Cc1c(N2CCN(Cc3cccs3)CC2)c(=O)n(C[C@H](N)c2ccccc2)c(=O)n1Cc1c(F)cccc1C(F)(F)F | < 6.00 | 8.90 |
| Cc1c(N2CCN(Cc3ccc(C(N)=O)o3)CC2)c(=O)n(C[C@H](N)c2ccccc2)c(=O)n1Cc1c(F)cccc1C(F)(F)F | < 6.52 | – |
| Cc1c(N2CCN(Cc3ccc(C(C)(C)C)o3)CC2)c(=O)n(C[C@H](N)c2ccccc2)c(=O)n1Cc1c(F)cccc1C(F)(F)F | < 6.52 | – |
| Cc1c(N2CCN(Cc3cccc(-c4ncco4)c3)CC2)c(=O)n(C[C@H](N)c2ccccc2)c(=O)n1Cc1c(F)cccc1C(F)(F)F | 7.28 | – |
| Cc1c(N2CCN(Cc3ccncn3)CC2)c(=O)n(C[C@H](N)c2ccccc2)c(=O)n1Cc1c(F)cccc1C(F)(F)F | < 6.52 | – |
| Cc1c(N2CCN(Cc3cccc(=O)o3)CC2)c(=O)n(C[C@H](N)c2ccccc2)c(=O)n1Cc1c(F)cccc1C(F)(F)F | < 6.52 | – |
| Cc1c(N2CCN(C(=O)OCc3ccccc3)CC2)c(=O)n(C[C@H](N)c2ccccc2)c(=O)n1Cc1c(F)cccc1F | – | < 7.00 |
| Cc1c(N2CCNC(CCO)C2)c(=O)n(C[C@H](N)c2ccccc2)c(=O)n1Cc1c(F)cccc1F (stereo partly drawn) | – | < 7.00 |
